“Also recorded” adds a separate entry of the source. Read-outs that look alike come from different tables or passages of the source.
Columns and labels:
[1] = biological target: bovine carbonic anhydrase II (b-CA II) (Bos taurus, UniProt P00921); test: Carbonic anhydrase (b-CA II) inhibition assay, p-nitrophenyl acetate hydrolysis; assay type: biochemical; settings: for selectivity for b-CA II over 15-LOX: b-CA II vs 15-LOX
Method: Carbonic anhydrase (b-CA II) inhibition activity was determined according to the previously reported protocol. IC50 values were calculated through GraphPad PRISM 5.0 Software Inc., San Diego, CA, USA.
This method is based on the spectrophotometric determination of hydrolytic product of substrate p-nitrophenyl acetate substrate. Assay volume was kept at 100 µL, comprised of 60 µL of Tris-sulfate buffer (50 mM, 0.1 mM ZnCl2 at pH 7.6), 10 µL of test compound with concentration of 50 µM and 10 µL (50 U) of b-CA II. The reaction mixture was incubated at 25 °C for 10 min and […]
Reaction was initiated by addition of 20 µL of p-nitrophenyl acetate (6mM) as substrate and incubated for further 30 min. […]
test compounds. All experiments were performed in triplicate and dose response curves were […]
(1 picture or pasted object on this page, not shown here)

[2] = biological target: T1, 15-lipoxygenase (15-LOX) (Glycine max, UniProt P08170); test: Lipoxygenase (15-LOX) inhibition assay, linoleic acid substrate, absorbance 234 nm; assay type: biochemical; settings: for IC50: mean of three experiments, read-out: 15-LOX IC50 ± SEM; for inhibition at 100 µM: final concentration of 100 μM
T1 sequence (P08170 1-839): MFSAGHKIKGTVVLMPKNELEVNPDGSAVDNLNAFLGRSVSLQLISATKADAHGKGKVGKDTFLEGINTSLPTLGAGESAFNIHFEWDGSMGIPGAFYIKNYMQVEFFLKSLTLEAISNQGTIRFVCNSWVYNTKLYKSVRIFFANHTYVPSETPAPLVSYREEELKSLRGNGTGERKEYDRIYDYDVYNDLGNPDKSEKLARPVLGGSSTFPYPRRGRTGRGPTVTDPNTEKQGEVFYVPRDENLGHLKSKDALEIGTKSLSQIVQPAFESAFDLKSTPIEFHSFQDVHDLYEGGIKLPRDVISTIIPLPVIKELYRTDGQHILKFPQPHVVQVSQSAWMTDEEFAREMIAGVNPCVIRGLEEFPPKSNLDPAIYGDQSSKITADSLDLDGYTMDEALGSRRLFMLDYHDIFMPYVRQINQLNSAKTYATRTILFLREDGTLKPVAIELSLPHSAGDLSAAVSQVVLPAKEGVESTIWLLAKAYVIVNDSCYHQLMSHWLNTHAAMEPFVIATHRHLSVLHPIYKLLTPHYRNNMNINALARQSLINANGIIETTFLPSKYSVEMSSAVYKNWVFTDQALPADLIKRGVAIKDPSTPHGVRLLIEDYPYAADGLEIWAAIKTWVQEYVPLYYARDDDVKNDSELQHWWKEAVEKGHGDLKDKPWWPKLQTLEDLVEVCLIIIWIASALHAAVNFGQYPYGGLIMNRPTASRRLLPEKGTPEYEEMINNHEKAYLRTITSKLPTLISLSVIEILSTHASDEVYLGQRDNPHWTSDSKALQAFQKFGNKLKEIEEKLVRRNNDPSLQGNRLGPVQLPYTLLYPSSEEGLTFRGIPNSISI
Method: The lipoxygenase activity was determined with the some modifications to the reported method. The compounds were first screened at 0.1 mM. Assay buffer was made containing 100 mM KH2PO4 and the pH was adjusted at 8.0. Initially, 145 µL of assay buffer was added in each well of a 96-well plate, followed by the addition of 10 µL of 15-LOX enzyme (42.5 units/well). Then, 20 µL of test compound was added in each well and incubated for 10 min at 25 °C. Absorbance was measured at 234 nm by multimode micro-plate reader, FLUOstar Omega, Germany as a pre-read value. Further reaction was carried out by adding of 25 µL of substrate linoleic acid and incubation for 10 min at 25 °C. After incubation, absorbance was calculated again at 234 nm as after read. […] The IC50 values for all experiments were determined using a nonlinear curve fitting tool and all experiments were carried out in triplicate format in GraphPad PRISM 5.0 (GraphPad, San Diego, CA, USA).

[3] = mean of three experiments, read-out: b-CA II IC50 ± SEM

bovine carbonic anhydrase II (b-CA II), sequence (P00921 whole entry): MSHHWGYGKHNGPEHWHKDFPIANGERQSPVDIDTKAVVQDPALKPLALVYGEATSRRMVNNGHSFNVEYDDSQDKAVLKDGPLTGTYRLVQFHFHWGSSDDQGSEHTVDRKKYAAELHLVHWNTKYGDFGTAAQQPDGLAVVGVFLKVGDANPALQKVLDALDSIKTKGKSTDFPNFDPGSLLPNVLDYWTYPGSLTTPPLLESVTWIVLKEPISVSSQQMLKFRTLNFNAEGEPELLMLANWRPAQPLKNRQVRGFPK

SMILES: COc1cc2cc(OC)c(OC)c(/C=N/NC(N)=S)c2cc1OC [3a]
- IC50 [1, 3]: 310 ± 10 nM
- melting point: 240 °C
- IC50 [2]: 370 ± 20 nM

SMILES: C#CCN(C)c1ccc(/C=N/NC(N)=S)cc1 [3b]
- selectivity for b-CA II over 15-LOX [1]: selective towards b-CA II; also recorded: selective inhibitors of CA II
- IC50 [1, 3]: 4970 ± 160 nM
- melting point: 245 °C
- inhibition at 100 µM [2]: < 50%

SMILES: NC(=S)N/N=C/c1ccccc1F [3c]
- IC50 [1, 3]: 2020 ± 120 nM
- IC50 [2]: 160 ± 10 nM

SMILES: NC(=S)N/N=C/c1cc([N+](=O)[O-])ccc1Cl [3d]
- selectivity for b-CA II over 15-LOX [1]: selective towards b-CA II; also recorded: selective inhibitors of CA II
- IC50 [1, 3]: 280 ± 10 nM
- melting point: 248 °C
- inhibition at 100 µM [2]: < 50%

SMILES: COc1ccc(/C=N/NC(N)=S)cc1O [3e]
- IC50 [1, 3]: 380 ± 20 nM
- IC50 [2]: 1340 ± 140 nM

SMILES: NC(=S)N/N=C/c1ccc(Br)s1 [3f]
- IC50 [1, 3]: 10200 ± 210 nM
- melting point: 243 °C
- IC50 [2]: 820 ± 190 nM

SMILES: NC(=S)N/N=C/c1c(F)cccc1Cl [3g]
- selectivity for b-CA II over 15-LOX [1]: selective towards b-CA II; also recorded: selective inhibitors of CA II
- IC50 [1, 3]: 840 ± 50 nM
- inhibition at 100 µM [2]: < 50%

SMILES: NC(=S)N/N=C/c1cccc(F)c1 [3h]
- IC50 [1]: 130 ± 10 nM
- fold higher potential towards b-CA II compared with standard inhibitor acetazolamide ([1]; vs acetazolamide): ≈ 7 fold
- IC50 [2]: 140 ± 10 nM

Reference: article PMC9785969, “Synthesis, Biological Evaluation, and Molecular Dynamics of Carbothioamides Derivatives as Carbonic Anhydrase II and 15-Lipoxygenase Inhibitors” (Molecules, 2022)
